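Each compound was tested at five concentrations against cells in 96-well plates for 48 hours. The concentration for 50% growth inhibition is given as GI50.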 Calls of active or inactive are those of the source. Rule as the data show it: active = GI50 up to about 1.1 µM and inactive = higher.
What was measured:
Assay in all cases: NCI anticancer screen, dose series, 48 h
[1] = tested on: COLO 205
[2] = tested on: HCT-15
[3] = tested on: HL-60
[4] = tested on: Hs-578T
[5] = tested on: LOX IMVI
[6] = tested on: MOLT-4
[7] = tested on: NCI-H522
[8] = tested on: OVCAR-8
[9] = tested on: PC-3
[10] = tested on: RXF 393
[11] = tested on: SF-268
[12] = tested on: SF-295
[13] = tested on: SK-MEL-2
[14] = tested on: SK-MEL-5
[15] = tested on: SR
[16] = tested on: TK-10
[17] = tested on: U-251
[18] = tested on: HCC 2998
[19] = tested on: DU-145
[20] = tested on: T47D

Row | Compound | GI50 [1] | GI50 [2] | GI50 [3] | GI50 [4] | GI50 [5] | GI50 [6] | GI50 [7] | GI50 [8] | GI50 [9] | GI50 [10] | GI50 [11] | GI50 [12] | GI50 [13] | GI50 [14] | GI50 [15] | GI50 [16] | GI50 [17] | GI50 [18] | GI50 [19] | GI50 [20]
1 | CCOC(=O)Cc1csc(N/C=C2/C(=O)Oc3ccccc3C2=O)n1 | 44.7 µM (inactive) | 24.2 µM | 0.083 µM (active) | 22 µM (inactive) | 25.6 µM (inactive) | 10.2 µM (inactive) | 13.5 µM (inactive) | 13.1 µM (inactive) | 32.2 µM (inactive) | 14.7 µM (inactive) | 24.8 µM (inactive) | 20.9 µM (inactive) | 13.6 µM (inactive) | 17.3 µM (inactive) | 14.3 µM (inactive) | 24.7 µM (inactive) | 20 µM (inactive) |  |  | 
2 | NNC(=O)CCC(=O)Nc1cc(Cl)c(Cl)cc1Cl | > 100 µM (inactive) | > 100 µM | > 100 µM (inactive) |  | > 100 µM (inactive) | 90.6 µM (inactive) | > 100 µM (inactive) | > 100 µM (inactive) |  | > 100 µM (inactive) | > 100 µM (inactive) | > 100 µM (inactive) | > 100 µM (inactive) | > 100 µM (inactive) | 0.607 µM (active) | > 100 µM (inactive) | > 100 µM (inactive) | > 100 µM (inactive) |  | 
3 | CCOC(=O)C12C3CCC1C2C(=O)C3 (stereo not drawn) | > 100 µM (inactive) | > 100 µM |  |  | > 100 µM (inactive) | > 100 µM (inactive) | > 100 µM (inactive) | > 100 µM (inactive) | > 100 µM (inactive) | > 100 µM (inactive) | > 100 µM (inactive) | > 100 µM (inactive) | > 100 µM (inactive) | > 100 µM (inactive) | > 100 µM (inactive) | > 100 µM (inactive) | > 100 µM (inactive) | > 100 µM (inactive) | > 100 µM (inactive) | 
4 | Oc1cccc(Nc2cc(O)nc(O)n2)c1 | > 100 µM (inactive) | > 100 µM | > 100 µM (inactive) | > 100 µM (inactive) | > 100 µM (inactive) | > 100 µM (inactive) | > 100 µM (inactive) | > 100 µM (inactive) | > 100 µM (inactive) | > 100 µM (inactive) | > 100 µM (inactive) | > 100 µM (inactive) | > 100 µM (inactive) | > 100 µM (inactive) | > 100 µM (inactive) | > 100 µM (inactive) | > 100 µM (inactive) | > 100 µM (inactive) |  | > 100 µM (inactive)
5 | CN(CCO)c1nc(N)cc(=O)[nH]1 | > 100 µM (inactive) | > 100 µM | > 100 µM (inactive) |  | > 100 µM (inactive) | > 100 µM (inactive) | > 100 µM (inactive) | > 100 µM (inactive) |  | > 100 µM (inactive) | > 100 µM (inactive) | > 100 µM (inactive) | > 100 µM (inactive) | > 100 µM (inactive) | > 100 µM (inactive) | > 100 µM (inactive) | > 100 µM (inactive) | > 100 µM (inactive) |  | 
6 | O=C1Oc2cc3c(c4cccc1c24)OCN(c1ccccc1)C3 | > 100 µM (inactive) | 79.1 µM | 43.5 µM (inactive) |  | 43.7 µM (inactive) | > 100 µM (inactive) | 26.2 µM (inactive) | > 100 µM (inactive) |  | > 100 µM (inactive) | > 100 µM (inactive) | > 100 µM (inactive) | > 100 µM (inactive) | > 100 µM (inactive) | 44.8 µM (inactive) | > 100 µM (inactive) | > 100 µM (inactive) | > 100 µM (inactive) |  | 
7 | N#CCC(=O)c1cc(OCc2cc(OCc3ccc(Br)cc3)cc(OCc3ccc(Br)cc3)c2)cc(OCc2cc(OCc3ccc(Br)cc3)cc(OCc3ccc(Br)cc3)c2)c1 | > 100 µM (inactive) | > 100 µM |  |  |  |  | > 100 µM (inactive) |  | > 100 µM (inactive) |  | > 100 µM (inactive) | > 100 µM (inactive) | > 100 µM (inactive) | > 100 µM (inactive) |  | > 100 µM (inactive) | > 100 µM (inactive) | > 100 µM (inactive) | > 100 µM (inactive) | > 100 µM (inactive)
8 | Oc1ccc(-c2c3ccccc3c(-c3ccc(O)cc3)c3ccccc23)cc1 | > 100 µM (inactive) | > 100 µM | > 100 µM (inactive) |  | 60.5 µM (inactive) | > 100 µM (inactive) | > 100 µM (inactive) | > 100 µM (inactive) |  | > 100 µM (inactive) | > 100 µM (inactive) | 84.1 µM (inactive) | > 100 µM (inactive) | > 100 µM (inactive) | 64.3 µM (inactive) | > 100 µM (inactive) | > 100 µM (inactive) | > 100 µM (inactive) |  | 
9 | Cc1ccc(C)c(NC(=O)C(=O)C2C(=O)C3=C(CC2(C)C)Nc2ccccc2S3)c1 (stereo not drawn) | > 100 µM (inactive) | > 100 µM | > 100 µM (inactive) | 69.2 µM (inactive) | > 100 µM (inactive) | 23.9 µM (inactive) | > 100 µM (inactive) | 33.8 µM (inactive) | > 100 µM (inactive) | 60.5 µM (inactive) | 62.7 µM (inactive) | 58.9 µM (inactive) | > 100 µM (inactive) | 79.8 µM (inactive) |  | > 100 µM (inactive) | 87.9 µM (inactive) | > 100 µM (inactive) | 93.5 µM (inactive) | 
10 | O=C(c1nc2ccccc2nc1O)C(O)c1ccccc1 (stereo not drawn) | > 100 µM (inactive) | 96.2 µM | 61.7 µM (inactive) |  | 39.5 µM (inactive) | 64.9 µM (inactive) | 22.2 µM (inactive) | > 100 µM (inactive) |  |  | 86.7 µM (inactive) | > 100 µM (inactive) | > 100 µM (inactive) | > 100 µM (inactive) | 86.1 µM (inactive) | > 100 µM (inactive) | 43.7 µM (inactive) | 53.7 µM (inactive) |  | 
11 | N#CC(/N=N/c1ccccc1C(=O)O)C(N)=O (stereo not drawn) |  | 68.9 µM | > 100 µM (inactive) |  |  | > 100 µM (inactive) | > 100 µM (inactive) |  | > 100 µM (inactive) | > 100 µM (inactive) |  | > 100 µM (inactive) | > 100 µM (inactive) | > 100 µM (inactive) | > 100 µM (inactive) | > 100 µM (inactive) | > 100 µM (inactive) |  | > 100 µM (inactive) | > 100 µM (inactive)
12 | O=C1C(c2ccc(Cl)cc2)=[N+]([O-])c2ccccc21 | 17.7 µM (inactive) | 11.4 µM | 3.3 µM (inactive) |  | 14 µM (inactive) | 12.4 µM (inactive) | 10 µM (inactive) | 10.7 µM (inactive) |  | 11 µM (inactive) | 15.4 µM (inactive) | 12.1 µM (inactive) | 23.1 µM (inactive) | 13.6 µM (inactive) | 20.2 µM (inactive) | 16.3 µM (inactive) | 16.7 µM (inactive) | > 100 µM (inactive) |  | 
13 | COC1C2c3ccccc3C(C#N)(Cc3ccc4c(c32)OCO4)N1C(=O)c1ccccc1 (stereo not drawn) | 16.7 µM (inactive) | 17.1 µM | 8.57 µM (inactive) |  | > 100 µM (inactive) | 30.1 µM (inactive) | 10.5 µM (inactive) | 84.9 µM (inactive) |  | 16.3 µM (inactive) | > 100 µM (inactive) | > 100 µM (inactive) | 46.8 µM (inactive) | 3.76 µM (inactive) | 14.3 µM (inactive) | > 100 µM (inactive) | 37.7 µM (inactive) | 37.9 µM (inactive) |  | 
14 | Cc1c(NC(=S)Nc2ccc([N+](=O)[O-])cc2)c(=O)n(-c2ccccc2)n1C | > 100 µM (inactive) | > 100 µM | > 100 µM (inactive) | > 100 µM (inactive) | > 100 µM (inactive) | 10.9 µM (inactive) | > 100 µM (inactive) | > 100 µM (inactive) | > 100 µM (inactive) | > 100 µM (inactive) | > 100 µM (inactive) | > 100 µM (inactive) |  | > 100 µM (inactive) | > 100 µM (inactive) | > 100 µM (inactive) | > 100 µM (inactive) | > 100 µM (inactive) | > 100 µM (inactive) | 
15 | CC1=C(NC(=O)/C(=N/NC(=S)NN)C2C(=O)CC(C)(C)CC2=O)C(=O)c2ccccc2C1=O | 12.5 µM (inactive) | 6 µM | 3.41 µM (inactive) |  | 3.34 µM (inactive) | 4.07 µM (inactive) | 2.85 µM (inactive) | 4.55 µM (inactive) |  | 17.9 µM (inactive) | 8.18 µM (inactive) | 13.7 µM (inactive) | 6.14 µM (inactive) | 2.15 µM (inactive) | 3.61 µM (inactive) | 16.1 µM (inactive) | 3.91 µM (inactive) | 10.8 µM (inactive) |  | 
16 | COC(=O)/C=C1/CCC(C)(C(=O)NS(=O)(=O)c2ccc(C)cc2)C1(C)C (stereo not drawn) | > 100 µM (inactive) | > 100 µM | > 100 µM (inactive) |  | > 100 µM (inactive) | > 100 µM (inactive) | > 100 µM (inactive) | > 100 µM (inactive) | > 100 µM (inactive) | > 100 µM (inactive) | > 100 µM (inactive) | > 100 µM (inactive) | > 100 µM (inactive) | > 100 µM (inactive) |  | > 100 µM (inactive) | > 100 µM (inactive) | > 100 µM (inactive) | > 100 µM (inactive) | > 100 µM (inactive)
17 | CCOC(=O)c1nc2ccc(C(F)(F)F)cc2nc1Oc1cc(OC)cc(OC)c1 | > 100 µM (inactive) | > 100 µM | > 100 µM (inactive) | 17 µM (inactive) | > 100 µM (inactive) | > 100 µM (inactive) |  | > 100 µM (inactive) | > 100 µM (inactive) | > 100 µM (inactive) | 93.3 µM (inactive) | 78.3 µM (inactive) | > 100 µM (inactive) | 29 µM (inactive) |  | > 100 µM (inactive) | 87.9 µM (inactive) |  | 87.3 µM (inactive) | > 100 µM (inactive)
